Source: ChEMBL document CHEMBL1129103, “Synthesis and antiviral activity of 2-deoxy-1,5-anhydro-D-mannitol nucleosides containing a pyrimidine base moiety” (1996)
≈ marks a conversion by molar mass, not a printed value.

Columns and labels:
Assay type in all cases: functional
Human alphaherpesvirus 2 = assay: Compound was tested for antiherpes activity against Herpes simplex virus-2(G) in E6SM cell cultures
Human alphaherpesvirus 3 = assay: Compound was tested for antiherpes activity against Varicella zoster virus(OKA) in HEL cells
Human alphaherpesvirus 1 = assay: Compound was tested for antiherpes activity against Herpes simplex virus-1(KOS) in E6SM cell cultures
Cytomegalovirus = assay: Compound was tested for antiherpes activity against Cytomegalovirus virus(AD 169) in HEL cells; details: Human betaherpesvirus 5

Compound	MIC (Human alphaherpesvirus 2) [µg/mL]	MIC (Human alphaherpesvirus 3) [µg/mL]	MIC (Human alphaherpesvirus 1) [µg/mL]	MIC (Cytomegalovirus) [µg/mL]
Nc1ccn(C2COC(CO)C(O)C2O)c(=O)n1 (stereo not drawn)	70 (≈ 272 µM)	10 (≈ 38.9 µM)	70 (≈ 272 µM)	10 (≈ 38.9 µM)
O=c1ccn(C2COC(CO)C(O)C2O)c(=O)[nH]1 (stereo not drawn)	> 200	> 50	150 (≈ 581 µM)	> 50
Nc1nc2c(ncn2COC(CO)CO)c(=O)[nH]1 [GANCICLOVIR]	0.002 (≈ 0.00784 µM)		0.0007 (≈ 0.00274 µM)	1 (≈ 3.92 µM)
Nc1nc2c(ncn2COCCO)c(=O)[nH]1 [ACYCLOVIR]	0.004 (≈ 0.0178 µM)	0.5 (≈ 2.22 µM)	0.004 (≈ 0.0178 µM)	
O=c1[nH]c(=O)n(C2COC(CO)C(O)C2O)cc1I (stereo not drawn)	70 (≈ 182 µM)	> 50	7 (≈ 18.2 µM)	> 50
